Test results reported in patent US7612082B2, “Prostaglandin EP4 antagonists” (Allergan, Inc., priority 2004, dated 2009).

Tests used:
[1] = target: T1, hDP (Homo sapiens, UniProt Q13258); test: Calcium signal (FLIPR) assay, hDP (HEK); type: cell-based; settings: for Kb: antagonism of standard agonist BW245C, HEK cells coexpress chimeric Gqs5
T1 construct: expressed in transfected cells; host or cells: HEK (by analogy HEK-293(EBNA))
T1 sequence (Q13258 1-359): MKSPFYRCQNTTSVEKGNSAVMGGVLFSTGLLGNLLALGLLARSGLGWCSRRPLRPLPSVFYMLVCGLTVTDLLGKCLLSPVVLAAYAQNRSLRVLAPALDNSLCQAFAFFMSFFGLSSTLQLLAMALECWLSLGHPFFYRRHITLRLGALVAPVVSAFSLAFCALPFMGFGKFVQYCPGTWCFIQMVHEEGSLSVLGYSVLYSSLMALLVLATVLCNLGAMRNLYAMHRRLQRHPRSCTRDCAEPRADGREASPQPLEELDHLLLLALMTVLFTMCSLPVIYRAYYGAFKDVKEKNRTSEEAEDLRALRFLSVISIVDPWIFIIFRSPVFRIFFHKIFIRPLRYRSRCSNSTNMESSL
Procedure: (§1) Cells were then washed twice with HBSS-HEPES buffer (Hanks Balanced Salt Solution without bicarbonate and phenol red, 20 mM HEPES, pH 7.4) using a Denley Cellwash plate washer (Labsystems; Franklin, Mass.). After 45-60 min of dye-loading in the dark using the calcium-sensitive dye Fluo-4 AM, at a final concentration of 2 μM, plates were washed four times with HBSS-HEPES buffer to remove excess dye and leaving 100 μl buffer in each well. Plates were then placed into a FLIPR™ instrument and were allowed to equilibrate at 37° C. Drug solution was added in a 50 μl volume to each well to give the desired final concentration. Cells were excited with an Argon laser at 488 nm, and emission was measured through a 510-570 nm bandwidth emission filter (FLIPR™, Molecular Devices, Sunnyvale, Calif.). The peak increase in fluorescence intensity was recorded for each well. […] A similar analysis was carried out for the other prostaglandin receptors, and for compound 2.

[2] = target: T2, hTP (Homo sapiens, UniProt P21731); test: Calcium signal (FLIPR) assay, hTP (HEK); type: cell-based; settings: for Kb: antagonism of standard agonist U-46619, HEK cells
T2 construct: expressed in transfected cells; host or cells: HEK (by analogy HEK-293(EBNA))
T2 sequence (P21731 1-343): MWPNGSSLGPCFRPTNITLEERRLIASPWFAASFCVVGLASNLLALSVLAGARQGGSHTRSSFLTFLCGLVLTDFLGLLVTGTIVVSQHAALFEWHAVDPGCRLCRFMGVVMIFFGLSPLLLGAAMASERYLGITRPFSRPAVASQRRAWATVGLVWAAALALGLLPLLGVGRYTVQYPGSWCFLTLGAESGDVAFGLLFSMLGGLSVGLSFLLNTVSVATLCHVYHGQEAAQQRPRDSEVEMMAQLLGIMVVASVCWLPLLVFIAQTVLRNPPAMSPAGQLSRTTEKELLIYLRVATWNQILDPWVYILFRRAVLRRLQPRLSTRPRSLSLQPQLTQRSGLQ
Procedure: as §1

[3] = target: T3, hEP1 (Homo sapiens, UniProt P34995); test: Calcium signal (FLIPR) assay, hEP1 (HEK); type: cell-based
T3 construct: expressed in transfected cells; host or cells: HEK (by analogy HEK-293(EBNA))
T3 sequence (P34995 1-402): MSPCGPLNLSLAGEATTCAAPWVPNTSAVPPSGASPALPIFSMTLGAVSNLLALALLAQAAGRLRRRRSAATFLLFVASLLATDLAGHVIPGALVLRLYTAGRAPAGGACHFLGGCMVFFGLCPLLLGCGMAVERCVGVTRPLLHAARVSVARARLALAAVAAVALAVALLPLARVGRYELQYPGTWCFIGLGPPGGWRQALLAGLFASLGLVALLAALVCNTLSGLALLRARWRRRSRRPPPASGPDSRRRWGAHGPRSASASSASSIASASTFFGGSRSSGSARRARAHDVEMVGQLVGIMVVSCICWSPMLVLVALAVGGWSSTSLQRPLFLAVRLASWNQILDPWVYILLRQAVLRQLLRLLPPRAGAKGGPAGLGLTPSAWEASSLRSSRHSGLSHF
Procedure: as §1

[4] = target: T4, hEP2 (Homo sapiens, UniProt P43116); test: Calcium signal (FLIPR) assay, hEP2 (HEK); type: cell-based
T4 construct: expressed in transfected cells; host or cells: HEK (by analogy HEK-293(EBNA))
Procedure: (§2) Cells were then washed twice with HBSS-HEPES buffer (Hanks Balanced Salt Solution without bicarbonate and phenol red, 20 mM HEPES, pH 7.4) using a Denley Cellwash plate washer (Labsystems; Franklin, Mass.). After 45-60 min of dye-loading in the dark using the calcium-sensitive dye Fluo-4 AM, at a final concentration of 2 μM, plates were washed four times with HBSS-HEPES buffer to remove excess dye and leaving 100 μl buffer in each well. Plates were then placed into a FLIPR™ instrument and were allowed to equilibrate at 37° C. […] The peak increase in fluorescence intensity was recorded for each well.

[5] = target: T5, hEP3A (Homo sapiens, UniProt P43115); test: Calcium signal (FLIPR) assay, hEP3A (HEK); type: cell-based
T5 construct: expressed in transfected cells; host or cells: HEK (by analogy HEK-293(EBNA))
T5 sequence (P43115 1-390): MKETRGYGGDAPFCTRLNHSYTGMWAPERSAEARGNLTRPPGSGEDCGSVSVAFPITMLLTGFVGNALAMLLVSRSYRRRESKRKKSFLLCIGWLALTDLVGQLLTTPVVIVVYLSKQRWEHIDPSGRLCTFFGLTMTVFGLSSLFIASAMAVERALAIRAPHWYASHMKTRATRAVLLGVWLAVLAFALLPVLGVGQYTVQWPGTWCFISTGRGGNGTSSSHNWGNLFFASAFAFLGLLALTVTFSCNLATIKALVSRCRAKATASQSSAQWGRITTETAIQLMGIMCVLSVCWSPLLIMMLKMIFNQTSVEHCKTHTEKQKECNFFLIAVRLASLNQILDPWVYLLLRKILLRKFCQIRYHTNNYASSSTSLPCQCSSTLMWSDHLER
Procedure: as §2

[6] = target: T6, human EP4 receptor (Homo sapiens, UniProt P35408); test: Effect on Prostaglandin E2 induced calcium signal (FLIPR), hEP4 (HEK); type: cell-based
T6 construct: expressed in transfected cells; host or cells: HEK-293(EBNA)
Procedure: as §2

[7] = target: T7, hFP (Homo sapiens, UniProt P43088); test: Calcium signal (FLIPR) assay, hFP (HEK); type: cell-based
T7 construct: expressed in transfected cells; host or cells: HEK (by analogy HEK-293(EBNA))
Procedure: as §2

[8] = target: T8, hIP (Homo sapiens, UniProt P43119); test: Calcium signal (FLIPR) assay, hIP (HEK); type: cell-based; settings: antagonism of standard agonist Carbacyclin; HEK cells
T8 construct: expressed in transfected cells; host or cells: HEK (by analogy HEK-293(EBNA))
Procedure: as §2

[9] = Capsule or suppository given daily to patient suffering from cancer (Example 27); type: in vivo, human
Procedure: A capsule or suppository comprising compound 1 is administered daily to a patient suffering from cancer.

[10] = Capsule given daily to patient suffering from osteoporosis (Example 25); type: in vivo, human
Procedure: A capsule comprising compound 2 is administered daily to a patient suffering from osteoporosis.

[11] = Tablet given to person suffering from migraine headache (Example 26); type: in vivo, human; settings: person suffering from a migraine headache
Procedure: A tablet comprising compound 2 is administered to a person suffering from a migraine headache.

T7 sequence (P43088 whole entry): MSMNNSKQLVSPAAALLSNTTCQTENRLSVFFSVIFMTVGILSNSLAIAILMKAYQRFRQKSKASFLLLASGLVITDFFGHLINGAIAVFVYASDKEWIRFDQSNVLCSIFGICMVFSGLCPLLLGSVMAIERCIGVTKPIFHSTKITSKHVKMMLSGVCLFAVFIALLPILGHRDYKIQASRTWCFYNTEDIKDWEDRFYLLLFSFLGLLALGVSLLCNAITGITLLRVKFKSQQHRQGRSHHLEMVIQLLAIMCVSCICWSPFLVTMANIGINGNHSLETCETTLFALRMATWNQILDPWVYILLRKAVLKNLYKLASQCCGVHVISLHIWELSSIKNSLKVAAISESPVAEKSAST
T8 sequence (P43119 whole entry): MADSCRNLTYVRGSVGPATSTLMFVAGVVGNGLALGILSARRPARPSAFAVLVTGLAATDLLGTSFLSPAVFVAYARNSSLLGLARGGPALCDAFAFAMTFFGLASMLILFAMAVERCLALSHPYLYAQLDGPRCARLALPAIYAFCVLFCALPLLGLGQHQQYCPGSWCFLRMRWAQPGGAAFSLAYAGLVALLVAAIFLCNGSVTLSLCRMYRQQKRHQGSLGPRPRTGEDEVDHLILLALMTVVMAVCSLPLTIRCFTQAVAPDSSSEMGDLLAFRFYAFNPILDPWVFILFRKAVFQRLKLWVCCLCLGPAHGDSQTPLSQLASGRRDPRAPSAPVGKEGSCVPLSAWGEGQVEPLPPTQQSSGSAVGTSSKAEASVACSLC
T6 sequence (P35408 whole entry): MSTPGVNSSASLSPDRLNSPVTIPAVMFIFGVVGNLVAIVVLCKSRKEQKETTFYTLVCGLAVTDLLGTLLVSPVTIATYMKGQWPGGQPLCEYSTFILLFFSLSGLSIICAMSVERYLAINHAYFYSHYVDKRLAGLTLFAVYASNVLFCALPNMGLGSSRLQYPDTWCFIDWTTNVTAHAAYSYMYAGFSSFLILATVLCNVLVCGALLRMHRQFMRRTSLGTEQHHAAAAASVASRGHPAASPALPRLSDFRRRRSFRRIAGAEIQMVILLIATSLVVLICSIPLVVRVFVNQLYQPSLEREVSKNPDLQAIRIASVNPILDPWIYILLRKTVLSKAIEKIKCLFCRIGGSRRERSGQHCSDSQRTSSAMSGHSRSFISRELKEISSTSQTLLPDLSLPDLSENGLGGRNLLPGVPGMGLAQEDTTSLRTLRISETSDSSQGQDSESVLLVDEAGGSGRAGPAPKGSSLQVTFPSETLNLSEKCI
T4 sequence (P43116 whole entry): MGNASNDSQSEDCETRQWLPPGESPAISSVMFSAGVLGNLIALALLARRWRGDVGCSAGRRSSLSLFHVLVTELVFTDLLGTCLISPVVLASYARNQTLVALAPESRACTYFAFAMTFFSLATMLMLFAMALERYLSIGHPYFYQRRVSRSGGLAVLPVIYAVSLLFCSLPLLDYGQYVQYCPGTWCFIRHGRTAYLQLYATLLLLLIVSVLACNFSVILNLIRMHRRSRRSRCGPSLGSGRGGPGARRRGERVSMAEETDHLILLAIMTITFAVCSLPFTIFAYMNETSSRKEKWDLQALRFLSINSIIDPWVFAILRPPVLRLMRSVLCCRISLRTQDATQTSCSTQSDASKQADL

Row | SMILES | Kb [1] [µM] | Kb [3] [µM] | Kb [4] [µM] | Kb [5] [µM] | Kb [6] [µM] | Kb [7] [µM] | Kb [8] [µM] | Kb [2] [µM] | also measured
1 | O=C(O)CCCCCCC1C(=O)NC(=O)N1CCC(O)C1CCCCC1 (stereo not shown) [BW245C, reference compound] |  |  |  |  |  |  |  |  | EC50 ([1]; agonist potency, calcium signal, cells coexpress chimeric Gqs5, read-out: Standard agonist hDP (HEK)): 0.006 µM
2 | CCCCC[C@H](O)/C=C/[C@@H]1[C@@H](C/C=C\CCCC(=O)O)[C@H]2CO[C@@H]1C2 [Compound U-46619, U-46619, reference compound] |  |  |  |  |  |  |  |  | EC50 ([2]; agonist potency, calcium signal, read-out: Standard agonist hTP (HEK)): 0.0003 µM
3 | CN(CC(=O)Nc1c2c(nc3c1CCC3)CCCC2)Cc1ccccc1 [Compound 1] | > 10 | > 10 | > 10 | > 10 | 0.101 | > 10 | > 10 | > 10 | Patient's condition [9]: Improvement in the patient's condition occurs
4 | CCCCC[C@H](O)/C=C/[C@H]1[C@H](O)CC(=O)[C@@H]1C/C=C\CCCC(=O)O [PGE2, Prostaglandin E2, reference compound] |  |  |  |  |  |  |  |  | EC50 ([3]; agonist potency, calcium signal, read-out: Standard agonist hEP1 (HEK)): 0.0003 µM
5 | CN(CC(=O)Nc1c2c(nc3ccccc13)CCC2)Cc1ccccc1 [Compound 2] | > 10 | > 10 | > 10 | > 10 | 0.172 | > 10 | > 10 | > 10 | Bone density [10]: Increase in bone density or reduction in bone density loss occurs; Pain [11]: Significantly less pain is experienced by the patient
